# Tested on: compound-treated mice
# Assay: Neuropharmacological assay (SmartCube): behavioral activity signature and minimal effective dose
# Type: in vivo
# Details: Mus musculus, ip, MED = dose having 50% or more total activity, read-out: Potency: minimal effective dose (MED)
# Procedure, shortened: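 Video-recorded behavior is compared algorithmically against a reference-compound database, yielding class probabilities (best dose reported). Compounds given i.p. in NMP/PEG/propylene glycol 15 min pre-test at 3 doses; potency as MED, the dose (mpk, range usually 0.3–30) reaching ≥50% total activity.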
row,Structure (SMILES),minimal effective dose [mg/kg]
1,C[C@H]1OCc2ccc(Cl)c(Cl)c2[C@@H]1N.Cl [Example 92],10 to 30
2,C[C@@H]1OCc2cc(Cl)ccc2[C@@H]1N.Cl [Example 93],10 to 30
3,C[C@H]1OCc2cc(Cl)ccc2[C@@H]1N.Cl [Example 94],10 to 30
4,Cc1ccc2c(c1)CO[C@@H](C)[C@H]2N.Cl [Example 95],< 3
5,Cc1ccc2c(c1)CO[C@H](C)[C@H]2N.Cl [Example 96],< 3
6,Cc1cccc2c1CO[C@@H](C)[C@H]2N.Cl [Example 97],3 to 10

# Same assay, conditions: i.p. 15 min before test, most efficacious dose(s)
Structure (SMILES),AD: ADHD (probability of activity signature),AG: analgesic (probability of activity signature),AX: anxiolytic (probability of activity signature),CE: cognitive enhancer (probability of activity signature),DP: anti-depressant (probability of activity signature),MS: mood stabilizer (probability of activity signature),PS: anti-psychotic (probability of activity signature),SD: sedative hypnotic (probability of activity signature),UN: uncharacterized CNS activity (probability of activity signature)
C[C@H]1OCc2ccc(Cl)c(Cl)c2[C@@H]1N.Cl [Example 92],+ (LOQ ≤ + <5%),+ (LOQ ≤ + <5%),++ (5% ≤ ++ <25%),+ (LOQ ≤ + <5%),++ (5% ≤ ++ <25%),+ (LOQ ≤ + <5%),+ (LOQ ≤ + <5%),+ (LOQ ≤ + <5%),++++ (50% ≤ ++++)
C[C@@H]1OCc2cc(Cl)ccc2[C@@H]1N.Cl [Example 93],+ (LOQ ≤ + <5%),++ (5% ≤ ++ <25%),+++ (25% ≤ +++ <50%),+ (LOQ ≤ + <5%),++ (5% ≤ ++ <25%),+ (LOQ ≤ + <5%),++ (5% ≤ ++ <25%),+ (LOQ ≤ + <5%),+ (LOQ ≤ + <5%)
C[C@H]1OCc2cc(Cl)ccc2[C@@H]1N.Cl [Example 94],+ (LOQ ≤ + <5%),++ (5% ≤ ++ <25%),++ (5% ≤ ++ <25%),+ (LOQ ≤ + <5%),+ (LOQ ≤ + <5%),+ (LOQ ≤ + <5%),+ (LOQ ≤ + <5%),+ (LOQ ≤ + <5%),++ (5% ≤ ++ <25%)
Cc1ccc2c(c1)CO[C@@H](C)[C@H]2N.Cl [Example 95],+ (LOQ ≤ + <5%),++ (5% ≤ ++ <25%),++ (5% ≤ ++ <25%),++ (5% ≤ ++ <25%),++ (5% ≤ ++ <25%),+ (LOQ ≤ + <5%),+++ (25% ≤ +++ <50%),+ (LOQ ≤ + <5%),+++ (25% ≤ +++ <50%)
Cc1ccc2c(c1)CO[C@H](C)[C@H]2N.Cl [Example 96],+ (LOQ ≤ + <5%),++ (5% ≤ ++ <25%),+++ (25% ≤ +++ <50%),++ (5% ≤ ++ <25%),++ (5% ≤ ++ <25%),+ (LOQ ≤ + <5%),++ (5% ≤ ++ <25%),+ (LOQ ≤ + <5%),+++ (25% ≤ +++ <50%)
Cc1cccc2c1CO[C@@H](C)[C@H]2N.Cl [Example 97],+ (LOQ ≤ + <5%),+ (LOQ ≤ + <5%),++ (5% ≤ ++ <25%),++ (5% ≤ ++ <25%),+ (LOQ ≤ + <5%),+ (LOQ ≤ + <5%),++ (5% ≤ ++ <25%),++ (5% ≤ ++ <25%),++++ (50% ≤ ++++)

# Source: patent US11077090B2, “Compounds and compositions and uses thereof” (Sunovion Pharmaceuticals Inc., priority 2016, dated 2021)
